The test system of assay [1] is C57BL6J male mice. In words: Indirect calorimetry and telemetry in mice after injection into the preoptic area. Conditions: 2.5 nmol by direct injection into the POA. The assay is classed as in vivo, mouse. As for the experimental part: C57BL6J male mice (3-4 months old, 25-30 g, 6 mice per group) were purchased from Harlan. […] Energy expenditure measures (VO2, VCO2 and heat formation ((3.815+1.232*RER)*VO2 (in liters)) were corrected for estimated effective metabolic mass per Kleiber's power function (Kleiber, 1947). Mice undergoing indirect calorimetry were acclimated to the respiratory chambers for 3-4 days before the onset of study. Data were recorded under ambient room temperature clamped at 25° C., beginning from the onset of the light cycle (12:12 hour light-dark cycle; lights on at 6:00 a.m.) for 3 days. Treatments were administered directly to the POA via an implanted cannula (anterior from bregma: 0.3 mm, midline, ventral: 3.8 mm, cannula 26 GA, 10 mm length) using an injector (33 GA, protruding 0.4 mm beyond the tip of the cannula, total length 10.4 mm) connected to plastic tubing and a microsyringe (10 μL) in a volume of 0.5 μL over a period of 5 minutes to allow diffusion. […]

The subject of assay [2] is ob/ob mice. The assay is described as follows: Glucose tolerance (IPGTT) in ob/ob mice. The assay is classed as in vivo, mouse. Conditions: for reduction in glucose: overnight fast, 0.6 mg/kg glucose challenge i.p., mean±SEM n=8. As for the experimental part: (§1) DIO mice fed on a high fat diet for 14 weeks and ob/ob mice were purchased from Jackson Labs. Ob/Ob mice and DIO mice used in all studies were used at 7 and 18 weeks old, respectively. After an overnight fast, ob/ob and DIO mice were injected with vehicle (20 mM Na acetate/140 mM NaCl) or EDN3 97-140 (0.1, 1 or 10 mg/kg i.p.) followed by a […] (i.p.) or 2 g/kg (i.p.) D-glucose challenge in ob/ob and DIO mice respectively. Plasma glucose levels were determined from mouse tail vein bleeds at 0, 15, 30, 60, and 120 minutes after compound injection and measured using an automatic glucometer (Alpha-Trak). To determine the acute insulin release, plasma insulin levels were measured by using an ELISA kit with mouse insulin as a standard (Meso Scale Discovery). Results were expressed as percentages of vehicle concentrations and statistical significance determined by 2-way ANOVA repeated measures.

For assay [3], the system named is DIO mice. The assay is described as follows: Glucose tolerance (IPGTT) in DIO mice. The assay is classed as in vivo, mouse. The following applies: for decrease of glucose excursion: 2 g/kg glucose challenge i.p., mean±SEM n=8. The method, then:
as §1

In assay [4] the test system is 3T3L1 adipocyte. In words: 3T3L1 adipocyte basal glucose uptake. In kind it is cell-based. Conditions: 10 μM (data not shown).
Assay [5] in a line: Insulin tolerance test. Conditions: 1 and 10 mg/kg i.p., acute administration (data not shown). In kind it is in vivo.

Entries after “also recorded” stand apart in the source; their conditions may differ. Bridges are numbered along the chain shown (N, C = ends). Where no end group is shown, it is not given here.

Turning to “CTCFTYKDKECVYYCHLDIIWINTPEQTVPYGLSNYRESLRGKR-NH2 (disulfide 1-15, 3-11) [EDN3 97-140]”, the locomotor activity entry in assay [1] is recorded as “transient spike of increased locomotor activity; also recorded: transient increase in locomotor activity”. Besides, the reduction in glucose in assay [2] (1 mg/kg i.p. single bolus) turned out to be 35.1±13%; in assay [2] (10 mg/kg i.p. single bolus), 31.3±6.9%. Further, the “glucose excursion curve in response to an IPGTT” value in assay [2] (acute peripheral administration 0.1, 1 or 10 mg/kg i.p.) is “decreased”; in assay [3] (diet induced obese mice, acute peripheral administration 0.1, 1 or 10 mg/kg i.p.) it was “decreased”. The “insulin secretion during IPGTT” value in assay [2] (i.p., trend towards an increase at 30 minutes at 10 mg/kg (p>0.05), 10 mg/kg) was “not statistically significant; also recorded: no statistically significant effect on insulin”. The “decrease of glucose excursion” value in assay [3] (DIO mice, 0.1 mg/kg i.p.) came to 19±7.2%; in assay [3] (DIO mice, 1 mg/kg i.p.) it was 20.7±8.7%. Further, the “insulin during IPGTT” value in assay [3] (DIO mice, i.p. (p>0.05)) was “no statistically significant effect on insulin”. The “effect on 3T3L1 adipocyte basal glucose uptake” value in assay [4] is “no effect”. Also, the “effect on insulin tolerance test” value in assay [5] is listed as “no effect”.

The record behind these values is patent US20130345392A1, “EDN3-LIKE PEPTIDES AND USES THEREOF” (Pfizer Inc, priority 2011, published 2013).
